This is an account of results in patent publication US11180483B2, “Substituted reverse pyrimidine Bmi-1 inhibitors” (PTC Therapeutics, Inc., priority 2012, dated 2021).

The subject of the assay is Bmi-1. In words: Sandwich ELISA Assay (Bmi-1 ELISA) in HT-1080 cells. Format: cell-based. In outline: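 Bmi-1 in lysates was measured by a three-antibody ELISA with TMB, OD450 minus OD570 reference, interpolated on a GST-tagged recombinant Bmi-1 standard curve, 0-8000 pg/mL. Lysates came from HT-1080 cells treated 40-48 h with compound, final DMSO 0.5%.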
Background: In an ELISA, binding on a coated surface is turned into a signal by an enzyme label.
`Cc1nn2ccccc2c1-c1nc(N)c(F)c(Nc2ccc(OC(F)F)cc2)n1` [Cpd 173, N-[4-(difluoromethoxy)phenyl]-5-fluoro-2-(2-methylpyrazolo[1,5-a]pyridin-3-yl)pyrimidine-4,6-diamine] showed an EC50 of 100 to 3000 nM. As for `Cc1nn2ccccc2c1-c1nc(N)c(F)c(Nc2ccc(C(F)(F)F)cc2)n1` [Cpd 177, 5-fluoro-2-(2-methylpyrazolo[1,5-a]pyridin-3-yl)-N-[4-(trifluoromethyl)phenyl]pyrimidine-4,6-diamine], the EC50 lay in the range of 100 to 3000 nM. In turn, `Nc1nc(-c2c(C(F)(F)F)nc3ccc(F)cn23)nc(Nc2ccc(C(F)(F)F)cc2)c1F` [Cpd 178, 5-fluoro-2-[6-fluoro-2-(trifluoromethyl)imidazo[1,2-a]pyridin-3-yl]-N-[4-(trifluoromethyl)phenyl]pyrimidine-4,6-diamine] gave an EC50 of 100 to 3000 nM. The result for `COc1ccc(Nc2nc(-n3c(C)nc4ccc(F)cc43)nc(N)c2F)cc1` [Cpd 179, 5-fluoro-2-(6-fluoro-2-methyl-1H-benzimidazol-1-yl)-N-(4-methoxyphenyl)pyrimidine-4,6-diamine] reads 1 to 10 nM. The result for `Nc1nc(-c2c(C3CC3)nn3ccccc23)nc(Nc2ccc(OC(F)F)cc2)c1F` [Cpd 180, 2-(2-cyclopropylpyrazolo[1,5-a]pyridin-3-yl)-N-[4-(difluoromethoxy)phenyl]-5-fluoropyrimidine-4,6-diamine] reads 100 to 3000 nM; that for `Nc1nc(-c2c(CO)nn3ccc(F)cc23)nc(Nc2ccc(OC(F)F)cc2)c1F` [Cpd 181, [3-(4-amino-6-{[4-(difluoromethoxy)phenyl]amino}-5-fluoropyrimidin-2-yl)-5-fluoropyrazolo[1,5-a]pyridin-2-yl]methanol], 10 to 100 nM.

`CSc1nc2ccccc2n1-c1nc(N)cc(Nc2ccc(C(F)(F)F)cc2)n1` [Cpd 182, 2-[2-(methylsulfanyl)-1H-benzimidazol-1-yl]-N-[4-(trifluoromethyl)phenyl]pyrimidine-4,6-diamine] had an EC50 of 100 to 3000 nM. The molecule `Cc1nc2ccc(F)cc2n1-c1nc(N)c(F)c(Nc2ccc(C(F)(F)F)nc2)n1` [Cpd 183, 5-fluoro-2-(6-fluoro-2-methyl-1H-benzimidazol-1-yl)-N-[6-(trifluoromethyl)pyridin-3-yl]pyrimidine-4,6-diamine] yielded a 50% effective concentration (EC50) of 10 to 100 nM. Regarding `Cc1ccc(Nc2nc(-n3c(C)nc4ccc(F)cc43)nc(N)c2F)cc1` [Cpd 184, 5-fluoro-2-(6-fluoro-2-methyl-1H-benzimidazol-1-yl)-N-(4-methylphenyl)pyrimidine-4,6-diamine], the EC50 is 1 to 10 nM.

Consider `Cc1nc2ccc(F)cc2n1-c1nc(N)c(F)c(Nc2ccc(Cl)cc2)n1` [Cpd 185, N-(4-chlorophenyl)-5-fluoro-2-(6-fluoro-2-methyl-1H-benzimidazol-1-yl)pyrimidine-4,6-diamine], for which the EC50 was in the range of 10 to 100 nM. The result for `COc1cccc(Nc2nc(-n3c(C)nc4ccc(F)cc43)nc(N)c2F)c1` [Cpd 189, 5-fluoro-2-(6-fluoro-2-methyl-1H-benzimidazol-1-yl)-N-(3-methoxyphenyl)pyrimidine-4,6-diamine] reads 100 to 3000 nM; that for `Cc1nc2ccc(F)cc2n1-c1nc(N)c(F)c(Nc2cccc(Cl)c2)n1` [Cpd 190, N-(3-chlorophenyl)-5-fluoro-2-(6-fluoro-2-methyl-1H-benzimidazol-1-yl)pyrimidine-4,6-diamine], 100 to 3000 nM; that for `Cc1nc2ccc(F)cc2n1-c1nc(N)c(F)c(Nc2ccc(OC(F)(F)F)cc2)n1` [Cpd 191, 5-fluoro-2-(6-fluoro-2-methyl-1H-benzimidazol-1-yl)-N-[4-(trifluoromethoxy)phenyl]pyrimidine-4,6-diamine], 10 to 100 nM.

The molecule `Cc1nc2ccc(F)cc2n1-c1nc(N)c(F)c(Nc2ccc(C#N)cc2)n1` [Cpd 192, 4-{[6-amino-5-fluoro-2-(6-fluoro-2-methyl-1H-benzimidazol-1-yl)pyrimidin-4-yl]amino}benzonitrile] gave an EC50 of 100 to 3000 nM. The result for `COC(=O)c1ccc(Nc2nc(-n3c(C)nc4ccc(F)cc43)nc(N)c2F)cc1` [Cpd 193, methyl 4-{[6-amino-5-fluoro-2-(6-fluoro-2-methyl-1H-benzimidazol-1-yl)pyrimidin-4-yl]amino}benzoate] reads 10 to 100 nM; that for `Cc1cccc(Nc2nc(-n3c(C)nc4ccccc43)nc(N)c2F)c1` [Cpd 194, 5-fluoro-2-(2-methyl-1H-benzimidazol-1-yl)-N-(3-methylphenyl)pyrimidine-4,6-diamine], 100 to 3000 nM; that for `COc1cccc(Nc2nc(-n3c(C)nc4ccccc43)nc(N)c2F)c1` [Cpd 195, 5-fluoro-N-(3-methoxyphenyl)-2-(2-methyl-1H-benzimidazol-1-yl)pyrimidine-4,6-diamine], 100 to 3000 nM.

Take `Cc1ccc(Nc2cc(N)nc(-n3c(C)nc4ccccc43)n2)cc1` [Cpd 196, 2-(2-methyl-1H-benzimidazol-1-yl)-N-(4-methylphenyl)pyrimidine-4,6-diamine]: the 50% effective concentration (EC50) is 1 to 10 nM. In the case of `COc1ccc(Nc2cc(N)nc(-n3c(C)nc4ccccc43)n2)cc1` [Cpd 197, N-(4-methoxyphenyl)-2-(2-methyl-1H-benzimidazol-1-yl)pyrimidine-4,6-diamine] it was 1 to 10 nM. The result for `Cc1nc2ccccc2n1-c1nc(N)cc(Nc2ccc(N(C)C)cc2)n1` [Cpd 198, N-[4-(dimethylamino)phenyl]-2-(2-methyl-1H-benzimidazol-1-yl)pyrimidine-4,6-diamine] reads 1 to 10 nM. The result for `Cc1ccc(Nc2nc(-n3c(C)nc4ccccc43)nc(N)c2F)cc1` [Cpd 199, 5-fluoro-2-(2-methyl-1H-benzimidazol-1-yl)-N-(4-methylphenyl)pyrimidine-4,6-diamine] reads 1 to 10 nM. In the case of `COc1ccc(Nc2nc(-n3c(C)nc4ccccc43)nc(N)c2F)cc1` [Cpd 200, 5-fluoro-N-(4-methoxyphenyl)-2-(2-methyl-1H-benzimidazol-1-yl)pyrimidine-4,6-diamine], the EC50 was 1 to 10 nM. The result for `Cc1nc2ccccc2n1-c1nc(N)c(F)c(Nc2ccc(Cl)cc2)n1` [Cpd 201, N-(4-chlorophenyl)-5-fluoro-2-(2-methyl-1H-benzimidazol-1-yl)pyrimidine-4,6-diamine] reads 10 to 100 nM. The result for `Cc1nc2ccccc2n1-c1nc(N)c(F)c(Nc2ccc(C#N)cc2)n1` [Cpd 202, 4-{[6-amino-5-fluoro-2-(2-methyl-1H-benzimidazol-1-yl)pyrimidin-4-yl]amino}benzonitrile] reads 100 to 3000 nM; that for `Cc1nc2ccccc2n1-c1nc(N)c(F)c(Nc2ccc3c(c2)OCO3)n1` [Cpd 203, N-(1,3-benzodioxol-5-yl)-5-fluoro-2-(2-methyl-1H-benzimidazol-1-yl)pyrimidine-4,6-diamine], 1 to 10 nM. The result for `Cc1nc2ccccc2n1-c1nc(N)c(F)c(Nc2ccc(OC(F)(F)F)cc2)n1` [Cpd 204, 5-fluoro-2-(2-methyl-1H-benzimidazol-1-yl)-N-[4-(trifluoromethoxy)phenyl]pyrimidine-4,6-diamine] reads 10 to 100 nM. As for `Cc1nc2ccccc2n1-c1nc(N)cc(Nc2ccc(Cl)cc2)n1` [Cpd 209, N-(4-chlorophenyl)-2-(2-methyl-1H-benzimidazol-1-yl)pyrimidine-4,6-diamine], the concentration for a half-maximal effect (EC50) is 10 to 100 nM.

The molecule `Cc1nc2ccccc2n1-c1nc(N)cc(Nc2ccc(C#N)cc2)n1` [Cpd 210, 4-{[6-amino-2-(2-methyl-1H-benzimidazol-1-yl)pyrimidin-4-yl]amino}benzonitrile] came in with an EC50 of 100 to 3000 nM.

The EC50 is the concentration giving half of the maximal effect. Low values mean a more potent agent, high ones a less potent agent.
